# Laboratory results published in patent US20230339886A1 (University of Florida Research Foundation, Incorporated, priority 2020, published 2023).
# Target: T1, REV-ERBα LBD (human; residues 281-614 Δ324-422) (Homo sapiens, UniProt P20393, DEL324-422)
# T1 construct: 6×Histag-REV-ERBα LBD (human; residues 281-614 Δ324-422); made in house; host or cells: Escherichia coli
# Assay: TR-FRET corepressor interaction assay (REV-ERBα LBD, FITC-SMRT peptide)
# Assay type: biochemical
# Details: FITC-SMRT peptide, read-out: REVERBα agonism (EC50 class, FRET assay)
# Method: TR-FRET corepressor interaction assay. The time-resolved fluorescence resonance energy transfer (TR-FRET) assay was performed in black low-volume 384-well plates (Greiner). […] Ligand stocks were prepared via serial dilution in DMSO, added to wells in triplicate, and plates were incubated at 4° C. for 2 h and read using a BioTek Synergy Neo multimode plate reader. The Tb donor was excited at 340 nm; its fluorescence emission was monitored at 495 nm, and the acceptor FITC emission was measured at 520 nm; and the TR-FRET ratio was calculated as the signal at 520 nm divided by the signal at 495 nm. Data were plotted using GraphPad Prism as TR-FRET ratio vs. ligand concentration and fit to sigmoidal dose response curve equation.
# T1 sequence (P20393 with tags, fused parts or gaps DEL324-422): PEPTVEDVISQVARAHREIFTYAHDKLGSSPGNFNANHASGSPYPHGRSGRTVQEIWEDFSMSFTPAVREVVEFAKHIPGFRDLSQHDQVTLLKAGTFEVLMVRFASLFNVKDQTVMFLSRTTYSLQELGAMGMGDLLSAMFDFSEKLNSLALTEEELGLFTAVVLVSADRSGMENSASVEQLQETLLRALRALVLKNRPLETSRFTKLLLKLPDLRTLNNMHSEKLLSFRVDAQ
# T1 sequence (Q9Y618 2335-2356 partner limits assumed): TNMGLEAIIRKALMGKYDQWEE
row,Compound,EC50 [nM]
1,"CC(C)(C)Cn1cc([C@H](NS(=O)(=O)C2CC2)C(F)F)c2cc(F)c(-c3ccccc3C(F)(F)F)nc21 [Example 546, (S)—N-(2,2-difluoro-1-(5-fluoro-1-neopentyl-6-(2-(trifluoromethyl)phenyl)-1H-pyrrolo[2,3-b]pyridin-3-yl)ethyl)cyclopropanesulfonamide]",< 500
2,"N#Cc1cccc(F)c1-c1ccc2c([C@H](NS(=O)(=O)C3CCC3)C(F)(F)F)cn(C3CCC3)c2c1 [Example 520, (S)—N-(1-(6-(2-cyano-6-fluorophenyl)-1-cyclobutyl-1H-indol-3-yl)-2,2,2-trifluoroethyl)cyclobutanesulfonamide]",< 500
3,"CN(C)C(=O)c1ccccc1-c1ccc2c([C@H](NS(=O)(=O)C3CC3)C(F)(F)F)cn(CC(C)(C)C)c2c1 [Example 471, (S)-2-(3-(1-(cyclopropanesulfonamido)-2,2,2-trifluoroethyl)-1-neopentyl-1H-indol-6-yl)-N,N-dimethylbenzamide]",500 to 3000
4,"CC(C)(C)Cn1cc([C@H](NS(=O)(=O)C2CCC2)C(F)(F)F)c2ccc(C3=CCCC3)cc21 [Example 521, (S)—N-(1-(6-cyclopentenyl-1-neopentyl-1H-indol-3-yl)-2,2,2-trifluoroethyl)cyclobutanesulfonamide]",< 500
5,"CC(C)Cn1cc([C@H](NS(=O)(=O)C2CC2)C(F)(F)F)c2cc(F)c(-c3ccnc4c3CCCC4)cc21 [Example 454, N-[(1S)-2,2,2-trifluoro-1-[5-fluoro-1-isobutyl-6-(5,6,7,8-tetrahydroquinolin-4-yl)indol-3-yl]ethyl]cyclopropanesulfonamide]",< 500
6,"CC(C)(C)Cn1cc([C@H](NS(=O)(=O)C2CCC2)C(F)(F)F)c2ccc(C3CC3)cc21 [Example 501, (S)—N-(1-(6-cyclopropyl-1-neopentyl-1H-indol-3-yl)-2,2,2-trifluoroethyl)cyclobutanesulfonamide]",< 500
7,"[2H][C@](NS(=O)(=O)C1CCC1)(c1cn(CC(C)(C)C)c2cc(-c3ccccc3C(F)(F)F)ccc12)C(F)F [Example 563, (S)—N-(2,2-difluoro-1-(1-neopentyl-6-(2-(trifluoromethyl)phenyl)-1H-indol-3-yl)ethyl-1-d)cyclobutanesulfonamide]",< 500
8,"CC(C)C(=O)n1cc([C@H](NS(=O)(=O)C2CCC2)C(F)(F)F)c2ccc(-c3ccccc3C(F)(F)F)cc21 [Example 504, (S)—N-(2,2,2-trifluoro-1-(1-isobutyryl-6-(2-(trifluoromethyl)phenyl)-1H-indol-3-yl)ethyl)cyclobutanesulfonamide]",< 500
9,"CC(C)(C)Cn1cc([C@H](NS(=O)(=O)C2CCC2(F)F)C(F)(F)F)c2ccc(-c3ccccc3C(F)(F)F)cc21 (stereo partly drawn) [Example 537, 2,2-difluoro-N—((S)-2,2,2-trifluoro-1-(1-neopentyl-6-(2-(trifluoromethyl)phenyl)-1H-indol-3-yl)ethyl)cyclobutane-1-sulfonamide]",> 3000
10,"CC(C)(C)C(=O)n1cc([C@H](NS(=O)(=O)C2CC2)C(F)(F)F)c2ccc(-c3ccccc3C(F)(F)F)cc21 [Example 480, (S)—N-(2,2,2-trifluoro-1-(1-pivaloyl-6-(2-(trifluoromethyl)phenyl)-1H-indol-3-yl)ethyl)cyclopropanesulfonamide]",500 to 3000
11,"C[C@H]1C[C@@H]1S(=O)(=O)N[C@@H](c1cn(CC(C)(C)C)c2cc(-c3ccccc3C(F)(F)F)ccc12)C(F)(F)F [Example 514, (1S,2S)-2-methyl-N—((S)-2,2,2-trifluoro-1-(1-neopentyl-6-(2-(trifluoromethyl)phenyl)-1H-indol-3-yl)ethyl)cyclopropane-1-sulfonamide]",< 500
12,"CC(C)(C)Cn1cc([C@@H](CO)NS(=O)(=O)C2CC2)c2ccc(-c3ccccc3C(F)(F)F)cc21 [Example 432, (S)—N-(2-hydroxy-1-(1-neopentyl-6-(2-(trifluoromethyl)phenyl)-1H-indol-3-yl)ethyl)cyclopropanesulfonamide]",< 500
13,"CC(C)(C)Cn1cc(CCNS(=O)(=O)C2CC2)c2ccc(-c3cccc(C(F)(F)F)c3Cl)cc21 [Example 485, N-(2-(6-(2-chloro-3-(trifluoromethyl)phenyl)-1-neopentyl-1H-indol-3-yl)ethyl)cyclopropanesulfonamide]",500 to 3000
14,"CC(C)(C)Cn1cc([C@H](NS(=O)(=O)C2CCC2)C(F)(F)F)c2ccc(-c3ccccc3C#N)cc21 [Example 495, (S)—N-(1-(6-(2-cyanophenyl)-1-neopentyl-1H-indol-3-yl)-2,2,2-trifluoroethyl)cyclobutanesulfonamide]",< 500
15,"CC(C)(C)Cn1cc([C@H](NS(=O)(=O)C2CC2)C(F)(F)F)c2ccc(-c3ccccc3C(F)(F)F)c(F)c21 [Example 536, (S)—N-(2,2,2-trifluoro-1-(7-fluoro-1-neopentyl-6-(2-(trifluoromethyl)phenyl)-1H-indol-3-yl)ethyl)cyclopropanesulfonamide]",< 500
16,"CC(C)(C)Cn1cc(CCNS(=O)(=O)C2CC2)c2ccc(-c3ccc(C(F)(F)F)cc3C(F)(F)F)cc21 [Example 481, N-(2-(6-(2,4-bis(trifluoromethyl)phenyl)-1-neopentyl-1H-indol-3-yl)ethyl)cyclopropanesulfonamide]",500 to 3000

# Same assay, conditions: Table 2, read-out: REVERBα agonism (EC50 class, FRET assay)
row,Compound,EC50 [nM]
1,"CC(C)Cn1cc(CCNS(=O)(=O)N(C)C)c2ccc(Br)cc21 [Compound 97, ({2-[6-bromo-1-(2-methylpropyl)-1H-indol-3-yl]ethyl}sulfamoyl)dimethylamine]",< 500
2,"CC(C)Cn1cc(CCNS(=O)(=O)N(C)C)c2ccc(NC(=O)Cc3ccccc3)cc21 [Compound 70, N-(3-{2-[(dimethylsulfamoyl)amino]ethyl}-1-(2-methylpropyl)-1H-indol-6-yl)-2-phenylacetamide]",> 3000
3,O=S(=O)(NCc1cn(CC(C(F)(F)F)C(F)(F)F)c2cc(-c3ccncc3Cl)c(F)cc12)C1CC1 [Compound 284],500 to 3000
4,"CC(C)(C)Cn1cc([C@H](NS(=O)(=O)C2CC2)C(F)(F)F)c2ccc(-c3ccccc3Cl)cc21 [Example 332, (S)—N-(1-(6-(2-chlorophenyl)-1-neopentyl-1H-indol-3-yl)-2,2,2-trifluoroethyl)cyclopropanesulfonamide]",< 500
5,"CN(C)S(=O)(=O)NCCc1cn(Cc2ccc(F)cc2)c2cc(-c3ccncc3)ccc12 [Example 146, N-{2-[6-(pyridin-4-yl)-1-(4-fluorobenzyl)-1H-indol-3-yl]ethyl}-N,N-dimethylsulfuric diamide]",500 to 3000
6,"CC(C)Cn1cc(C2(CNS(=O)(=O)N(C)C)CC2)c2ccc(-c3ccncc3)cc21 [Example 178, dimethyl[({1-[1-(2-methylpropyl)-6-(pyridin-4-yl)-1H-indol-3-yl]cyclopropyl}methyl)sulfamoyl]amine]",< 500
7,CC(C)S(=O)(=O)NCCc1cn(CC(C)(C)C)c2cc(-c3ccccc3C(F)(F)F)c(F)cc12 [Compound 289],< 500
8,"CC(C)Cn1cc([C@H](NS(=O)(=O)C2CC2)C(F)(F)F)c2ccc(-c3ccc(F)cc3C(F)(F)F)cc21 [Example 324, (S)—N-(2,2,2-trifluoro-1-(6-(4-fluoro-2-(trifluoromethyl)phenyl)-1-isobutyl-1H-indol-3-yl)ethyl)cyclopropanesulfonamide]",< 500
9,"CC(C)(C)Cn1cc([C@H](NS(=O)(=O)C2CC2)C(F)(F)F)c2cc(F)c(-c3ccc(F)cc3C(F)(F)F)cc21 [Example 355, (S)—N-(2,2,2-trifluoro-1-(5-fluoro-6-(4-fluoro-2-(trifluoromethyl)phenyl)-1-neopentyl-1H-indol-3-yl)ethyl)cyclopropanesulfonamide]",< 500
10,"CC(C)(C)Cc1cn(CCNS(=O)(=O)C2CC2)c2ccc(-c3cccc(F)c3Cl)cc12 [Example 228, N-(2-(5-(2-chloro-3-fluorophenyl)-3-neopentyl-1H-indol-1-yl)ethyl)cyclopropane sulfonamide]",< 500
11,"Cc1cccc(Cl)c1-c1ccc2c([C@H](NS(=O)(=O)C3CC3)C(F)(F)F)cn(CC(C)(C)C)c2c1 [Example 388, (S)—N-(1-(6-(2-chloro-6-methylphenyl)-1-neopentyl-1H-indol-3-yl)-2,2,2-trifluoroethyl)cyclopropanesulfonamide]",< 500
12,"CC(C)S(=O)(=O)NCCn1cc(CC(C)(C)C)c2cc(Br)ccc21 [Example 171, N-(2-(5-bromo-3-neopentyl-1H-indol-1-yl)ethyl)propane-2-sulfonamide]",500 to 3000
13,"CC(C)Cn1cc(-c2cccc(NS(=O)(=O)C(C)C)c2)c2ccc(-c3ccccc3)cc21 [Example 83, N-(3-(1-isobutyl-6-phenyl-1H-indol-3-yl)phenyl)propane-2-sulfonamide]",> 3000
14,"CC(C)Cn1cc([C@H](NS(=O)(=O)C2CC2)C(F)(F)F)c2ccc(-c3ccncc3)cc21 [Example 307, (S)—N-(2,2,2-trifluoro-1-(1-isobutyl-6-(pyridin-4-yl)-1H-indol-3-yl)ethyl)cyclopropanesulfonamide]",< 500
15,"CC(C)C(=O)n1cc(CNS(=O)(=O)N(C)C)c2ccc(-c3ccnn3C)cc21 [Example 184, 1-(3-{[(dimethylsulfamoyl)amino]methyl}-6-(1-methyl-1H-pyrazol-5-yl)-1H-indol-1-yl)-2-methylpropan-1-one]",> 3000
16,"CC(C)Cn1cc(CCNS(=O)(=O)N(C)C)c2ccc(-c3cccc(-c4ccccc4)c3)cc21 [Example 55, N-{2-[6-([1,1′-biphenyl]-3-yl)-1-(2-methylpropyl)-1H-indol-3-yl]ethyl}-N,N-dimethyl-sulfuric diamide]",500 to 3000
17,CC(C)Cn1cc(C(C)CNS(=O)(=O)N(C)C)c2ccc(-c3ccccc3)cc21 (stereo not drawn) [Compound 255],500 to 3000
